Assay results published in PMC3831368 (Bioorganic & medicinal chemistry, 2013).
pIC50: −log10 of the molar value.

Columns and labels:
MOR [1] = target: T1, MOR (Mus musculus, UniProt P42866); details: in vitro radioligand competition binding; cited from earlier work
MOR [2] = target: T1, MOR; details: cited from earlier work
morphine antinociception = details: cited from earlier work
W318A MOR = W318A MOR (Mus musculus, UniProt P42866, W318A); assay: Competition binding to site-directed mutated MOR W318A; details: read-out: W318A MOR IC50; ± SEM; transient CHO cells
Chain of W318A MOR (P42866 whole entry W318A): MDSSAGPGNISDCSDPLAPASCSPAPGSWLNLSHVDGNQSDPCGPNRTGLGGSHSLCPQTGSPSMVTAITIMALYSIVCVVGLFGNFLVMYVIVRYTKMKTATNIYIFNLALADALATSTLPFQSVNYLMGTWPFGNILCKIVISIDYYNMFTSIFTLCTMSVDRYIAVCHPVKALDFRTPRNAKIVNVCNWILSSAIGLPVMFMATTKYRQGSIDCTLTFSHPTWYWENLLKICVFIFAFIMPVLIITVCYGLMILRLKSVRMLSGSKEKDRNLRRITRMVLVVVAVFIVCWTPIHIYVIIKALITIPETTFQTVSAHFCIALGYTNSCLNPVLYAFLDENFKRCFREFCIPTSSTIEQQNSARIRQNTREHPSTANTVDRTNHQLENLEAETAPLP

T1 sequence (P42866 whole entry): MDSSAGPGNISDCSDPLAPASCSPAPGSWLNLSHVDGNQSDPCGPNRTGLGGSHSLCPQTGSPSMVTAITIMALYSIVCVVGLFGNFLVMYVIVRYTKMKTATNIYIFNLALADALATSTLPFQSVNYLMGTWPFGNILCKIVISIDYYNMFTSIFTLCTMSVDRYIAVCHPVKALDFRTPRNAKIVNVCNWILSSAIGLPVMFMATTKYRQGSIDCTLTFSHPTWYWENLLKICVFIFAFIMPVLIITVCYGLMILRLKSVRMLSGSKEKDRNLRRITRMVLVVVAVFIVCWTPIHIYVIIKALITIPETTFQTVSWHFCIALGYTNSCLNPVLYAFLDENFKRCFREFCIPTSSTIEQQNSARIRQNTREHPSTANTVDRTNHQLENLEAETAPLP

Structure (SMILES): O=C(N[C@@H]1CC[C@@]2(O)[C@H]3Cc4ccc(O)c5c4[C@@]2(CCN3CC2CC2)[C@H]1O5)c1ccncc1 [NAP]
- affinity for the MOR (MOR [1]): sub-nanomolar
- agonism in the in vitro GTPγS assay (MOR [2]): marginal partial agonism
- antagonism in in vivo antinociceptive test against morphine (morphine antinociception): potent antagonism

Structure (SMILES): O=C(N[C@H]1CC[C@@]2(O)[C@H]3Cc4ccc(O)c5c4[C@@]2(CCN3CC2CC2)[C@H]1O5)c1cc2ccccc2cn1 [NAQ]
- affinity for the MOR (MOR [1]): sub-nanomolar
- agonism in the in vitro GTPγS assay (MOR [2]): marginal partial agonism
- antagonism in in vivo antinociceptive test against morphine (morphine antinociception): potent antagonism
- pIC50 (W318A MOR): < 6.00
